From PMC10819570, “Design, Synthesis, and Biological Evaluation of 2-Substituted Aniline Pyrimidine Derivatives as Potent Dual Mer/c-Met Inhibitors” (Molecules, 2024) come the findings set out here.

In general, IC50 refers to the point on the concentration scale where inhibition reaches its midpoint.

Entries after “also recorded” stand apart in the source; their conditions may differ.

The nature of data set [1]: Liver microsome stability assay. Type of data set: in vitro ADME. The conditions noted are these: pH 7.4, human liver microsomes 0.2 mg/mL, test compound 1 μM, NADPH. The procedure:
Stock solution (10 mM) of each of test compound was prepared in DMSO. The stock solution for each compound was then diluted into 200 μM with acetonitrile. Incubation mixtures were prepared in a total volume of 200 μL with final component concentrations as follows: 0.1 M PBS (pH 7.4), NADPH (2 mM), liver microsomes (0.2 mg/mL), and test compound (1 μM) or positive control. NAPDH was added after a 5 min preincubation of all other components at 37 °C, then pipette-mixed to achieve a homogenous suspension and immediately transferred 20 μL of the incubate as a 0 min sample to wells in a “Quenching” plate, followed by pipette-mixing. At 5, 15, 30, and 60 min, we pipette-mixed the incubate and serially transferred samples of 20 μL of the incubate per time point to wells in a separate “Quenching” plate, followed by pipette-mixing. In “Quenching” plates, 200 μL of acetonitrile was added with IS. The 96 wells were centrifuged at 4000 rpm for 10 min. Then 50 μL of supernatant was mixed with 50 μL of ddH2O and injected into the LC-MS/MS system for analysis.

In data set [2] the test system is HCT116 cells. Nature of the data set: Antiproliferation assay (CCK-8), HCT116. Type of data set: cell-based. The procedure: (§1) Cell viability was measured by Cell Counting Kit-8 (Meilunbio, Dalian, China) according to the manufacturer’s instructions. Briefly, cancer cells were seeded into 96-well plates at a density of 2.5 × 10^3 cells per well. […] Subsequently, CCK-8 solution was added into each well and incubated for an additional 2 h. The absorbance at 450 nm was determined in each well using the BioTek Synergy HTX microplate reader. The assay was performed in triplicate, and each experiment was repeated three times.

Data set [3] concerns the target T1, hERG potassium currents (Homo sapiens, UniProt Q12809).
T1 construct: expressed in transfected cells
Kind of data set: hERG potassium currents assay (automated whole-cell patch clamp, CHO cells). Type of data set: cell-based. As to conditions: CHO cells stably expressing hERG, QPatch. The procedure: CHO cells stably expressing the transcript of hERG were investigated by the automated whole-cell patch clamp technique, using the QPatch system (Sophion, Ballerup, Denmark). The detailed procedures of the hERG potassium currents assay were described in our previous work. Each cell was received from six escalating concentrations. Each concentration was tested on at least three cells. The reference compound cisapride was applied at the end of the test compound addition.
(Block of hERG is tested as a sign of cardiac risk.)

For data set [4], the system named is HCT116 cells. Kind of data set: TUNEL apoptosis assay. Type of data set: cell-based. As to conditions: HCT116, 48 h treatment. The procedure: The number of TUNEL-positive cells was counted from 5 non-overlap random fields per group; DAPI (blue). Data are representative of three independent experiments.
The One Step TUNEL Apoptosis Assay Kit (Meilunbio, Dalian, China) was used for studying apoptosis in a dose-dependent manner. HCT116 cells (1.5 × 10^4 cells/well) were cultured in TC-treated glass coverslip-containing plates. […] Next, adhered cells were fixed with 4% paraformaldehyde and permeabilized with 0.3% Triton-X-100. TUNEL staining was performed according to the manufacturer’s instructions. The nuclei of cells were counterstained with the DAPI reagent. Images were taken using an Olympus fluorescence microscope. The ED50 for 18c was calculated with the program GraphPad PRISM 9.5. The assay was performed in triplicate, and each experiment was repeated three times.

The subject of data set [5] is MDA-MB-231 cells. Nature of the data set: Antiproliferation assay (CCK-8), MDA-MB-231. Type of data set: cell-based. The procedure:
as §1, with “The antiproliferative activities of the compounds against HepG2, MDA-MB-231, and HCT116 cell lines were tested by the standard CCK-8 method. Cell viability” for “Cell viability”

Data set [6] concerns the target T2, Mer kinase (Homo sapiens, UniProt Q12866).
T2 sequence (Q12866 21-999): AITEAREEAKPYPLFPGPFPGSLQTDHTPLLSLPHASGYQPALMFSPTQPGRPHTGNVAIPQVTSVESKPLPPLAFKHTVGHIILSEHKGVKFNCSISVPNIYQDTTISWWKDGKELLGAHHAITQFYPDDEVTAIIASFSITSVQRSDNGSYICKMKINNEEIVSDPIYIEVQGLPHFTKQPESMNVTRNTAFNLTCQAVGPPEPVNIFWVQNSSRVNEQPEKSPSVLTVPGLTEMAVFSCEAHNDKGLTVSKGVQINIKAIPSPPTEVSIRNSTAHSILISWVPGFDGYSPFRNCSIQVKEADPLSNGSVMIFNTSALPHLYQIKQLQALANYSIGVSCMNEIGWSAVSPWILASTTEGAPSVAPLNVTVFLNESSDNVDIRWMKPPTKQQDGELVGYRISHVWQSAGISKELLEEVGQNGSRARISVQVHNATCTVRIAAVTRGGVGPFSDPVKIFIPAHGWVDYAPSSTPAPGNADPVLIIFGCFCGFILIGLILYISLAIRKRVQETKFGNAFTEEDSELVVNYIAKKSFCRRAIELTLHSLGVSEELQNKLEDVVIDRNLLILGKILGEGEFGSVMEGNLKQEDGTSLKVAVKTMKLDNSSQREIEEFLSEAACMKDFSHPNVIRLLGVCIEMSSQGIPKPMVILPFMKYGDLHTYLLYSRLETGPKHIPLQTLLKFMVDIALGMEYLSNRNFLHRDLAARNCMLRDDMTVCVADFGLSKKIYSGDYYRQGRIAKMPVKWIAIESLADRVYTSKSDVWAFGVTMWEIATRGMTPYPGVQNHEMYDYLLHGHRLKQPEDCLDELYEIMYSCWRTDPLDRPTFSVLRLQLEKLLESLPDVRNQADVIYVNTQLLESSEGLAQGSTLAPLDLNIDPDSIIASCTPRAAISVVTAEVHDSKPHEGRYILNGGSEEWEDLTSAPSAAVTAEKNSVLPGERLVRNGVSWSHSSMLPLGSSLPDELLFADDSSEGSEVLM
Nature of the data set: Mer kinase inhibitory activity assay (in vitro). Format: biochemical. As to conditions: ATP 30 uM, enzyme 0.25 nM; means from three independent experiments. The procedure: The in vitro inhibition assays of all final compounds against Mer and c-Met kinase were performed by Shanghai Bioduro Biological Technology Co., Ltd. (Shanghai, China). We prepared 1× buffer: HEPES 50 mM, MgCl2 10 mM, EGTA 1 mM, NP-40 0.0001%, DTT 2 mM; compound dilution with DMSO. For test compounds, a 100 × final concentration solution was prepared. About 100 nL compounds were transferred to a 384-well plate by using the automated liquid handler. The final DMSO% in the assay is 1%. Enzyme stock solutions were diluted with 1× assay buffer to a concentration of 0.5 nM to make a 2× working solution. […] Substrate solutions were diluted with 1× assay buffer. About 5 μL mix or buffer was added manually to the assay plate (ATP final 30 uM and TK-Sub-Biotin final 2 uM) using a multichannel pipette, spun down at 1000 rpm, and centrifuged for 30 s. After incubating at 30 °C for 60 min, 10 μL of detection solution was added to each well of the assay, mixed briefly with a centrifuge, and equilibrated for another 60 min. The luminescence was recorded using Envision.

Data set [7] concerns HCT116 cells. Nature of the data set: Transwell migration assay. Type of data set: cell-based. As to conditions: 24 h. The procedure: Transwell migration assays were performed using Transwell® chamber inserts (Costar, Cambridge, MA, USA) with a porous polycarbonate membrane (8 μM pore size).
Transwell migration assays were performed using Transwell® chamber inserts (Costar, Cambridge, MA, USA) with a porous polycarbonate membrane ([…]). Briefly, 1.5 × 10^5 HCT116 cells were added in the top chamber with FBS-free culture media containing 0.2% BSA. A culture medium containing 15% FBS was added to the bottom chamber. […] After incubation for 24 h at 37 °C, the cells were fixed in methanol and stained with 0.1% crystal violet. The cells that had not migrated from the top surface of the filters were removed with cotton. Five randomly selected fields were captured by brightfield microscopy for each well. Migrated cells were quantitated by ImageJ (1.53c). Experiments were repeated at least three times in replicates.

Data set [8] deals with HepG2 cells. Kind of data set: Antiproliferation assay (CCK-8), HepG2. Format: cell-based. The procedure: as §1, with “The antiproliferative activities of the compounds against HepG2, MDA-MB-231, and HCT116 cell lines were tested by the standard CCK-8 method. Cell viability” for “Cell viability”
The mark [9] stands for this setting: ratio of IC50 values to cabozantinib.

T1 sequence (Q12809 whole entry): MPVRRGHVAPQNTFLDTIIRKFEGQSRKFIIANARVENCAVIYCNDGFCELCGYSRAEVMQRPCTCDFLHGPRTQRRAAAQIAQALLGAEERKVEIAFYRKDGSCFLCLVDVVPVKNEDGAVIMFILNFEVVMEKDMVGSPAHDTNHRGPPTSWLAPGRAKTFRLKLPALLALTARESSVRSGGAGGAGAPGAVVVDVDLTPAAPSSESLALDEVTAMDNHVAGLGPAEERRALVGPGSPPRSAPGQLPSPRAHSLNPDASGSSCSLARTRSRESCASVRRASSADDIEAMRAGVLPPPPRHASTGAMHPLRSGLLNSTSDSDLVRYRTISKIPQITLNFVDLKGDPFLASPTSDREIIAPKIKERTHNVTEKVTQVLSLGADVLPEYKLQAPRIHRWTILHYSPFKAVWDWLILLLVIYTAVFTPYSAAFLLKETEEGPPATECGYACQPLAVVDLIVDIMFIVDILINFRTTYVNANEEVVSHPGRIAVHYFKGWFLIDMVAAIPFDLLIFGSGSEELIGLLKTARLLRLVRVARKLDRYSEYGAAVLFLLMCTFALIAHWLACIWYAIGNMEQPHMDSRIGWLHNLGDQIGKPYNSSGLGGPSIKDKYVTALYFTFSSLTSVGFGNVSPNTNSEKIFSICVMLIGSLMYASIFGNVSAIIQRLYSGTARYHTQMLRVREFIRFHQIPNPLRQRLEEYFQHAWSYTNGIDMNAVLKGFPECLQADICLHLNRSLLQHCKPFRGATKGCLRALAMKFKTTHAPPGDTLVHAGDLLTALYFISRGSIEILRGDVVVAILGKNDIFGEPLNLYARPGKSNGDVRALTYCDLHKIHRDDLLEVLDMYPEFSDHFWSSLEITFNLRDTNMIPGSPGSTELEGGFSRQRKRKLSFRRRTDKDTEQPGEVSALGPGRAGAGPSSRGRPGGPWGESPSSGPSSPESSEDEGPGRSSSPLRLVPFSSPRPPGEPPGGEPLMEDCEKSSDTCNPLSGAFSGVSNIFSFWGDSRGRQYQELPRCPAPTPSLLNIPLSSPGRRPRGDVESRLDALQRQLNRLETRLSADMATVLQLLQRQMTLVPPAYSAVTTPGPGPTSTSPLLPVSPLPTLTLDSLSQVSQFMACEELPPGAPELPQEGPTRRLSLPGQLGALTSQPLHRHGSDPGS

Take `CN1CCN(CC(=O)Nc2ccc(Nc3nccc(Oc4ccc(NC(=O)C5(C(=O)Nc6ccc(F)cc6)CC5)cc4)n3)cc2)CC1` [Compound 18c]: the microsomal CLint at 1 μM in data set [1] (read-out: CL Human) was determined as 60 µL/min/mg. Moreover, the half-life at 1 μM in data set [1] (read-out: T1/2 Human) was determined as 53.1 min. For the same compound, the half-inhibitory concentration (IC50) in data set [2] (Homo sapiens, HCT-116, 72 h, read-out: IC50 antiproliferative HCT116) is 4.95 µM; in data set [3] it was over 40 µM; in data set [5] (Homo sapiens, MDA-MB-231, 72 h, read-out: IC50 antiproliferative MDA-MB0231), 8.9 µM; in data set [6], 0.0185 ± 0.0023 µM; in data set [8] (Homo sapiens, HepG2, 72 h, read-out: IC50 antiproliferative HepG2) it was 6.63 µM. The “Antiproliferative activity against HCT116, times higher than cabozantinib” value in data set [2] (setting [9]) was determined as 1.6 times. Besides, in data set [4], the “ED50 apoptosis (TUNEL-positive cells)” value was 10.07 µM. The “Antiproliferative activity against MDA-MB-231, times higher than cabozantinib” value in data set [5] (setting [9]) turned out to be 3.3 times. Further, in data set [7], the “Inhibition of HCT116 cell migration vs control” value is recorded as “inhibited cell migration; also recorded: significantly inhibited”. The “Antiproliferative activity against HepG2, times lesser than cabozantinib” value in data set [8] (setting [9]) is listed as 3.8 times.
